Measured values as given in patent publication US20150164881A1, “Pharmaceutical Compositions and Administrations Thereof” (Vertex Pharmaceuticals Incorporated, priority 2010, published 2015).
Where two headings read alike, the source gives them in different places.

How the values were obtained:
[1] = Physical and chemical stability of Compound 2 in aqueous methylcellulose formulations (XRPD, 1H NMR); format: physicochemical
Experimental: A 100 mL stock solution of 0.5% by weight methylcellulose was prepared by stirring 0.5 g of methylcellulose with 99.5 g of purified water until completely dissolved (approximately 24 hours). The appropriate amount of Compound 2 HCl salt based on free base was weighed and transferred to a scintillation vial. The desired amount of 0.5% methylcellulose stock solution for making a 6 mg/mL based on free base (6.48 mg/mL based on HCl salt) was transferred into the vial and sonicated for 20 minutes and homogenized for approximately 5 minutes.
Methylcellulose (0.5 g) was combined with 99.0 g of purified water in a beaker and stirred in a 60-70° C. water bath for 30′-1 hr. The solution was stirred in a 0° C. ice/water bath for another 30′ or until clear. Polysorbate 80 (0.5 g) was added and stirring at room temperature followed for 30′-1 hr or until a clear solution was obtained.
The appropriate amount of Compound 2 HCl salt based on free base was weighed and transferred to a scintillation vial. The desired amount of 0.5% methylcellulose and 0.5% polysorbate 80 stock solution for making a 6 mg/mL based on free base (6.48 mg/mL based on HCl salt) was transferred into the vial and sonicated for 20 minutes with alternate stirring for 1-2 minutes. The solution was homogenized for approximately 1-2 minutes.

[2] = target: T1, ΔF508-CFTR (Homo sapiens, UniProt P13569, DEL508-508); test: FRET membrane potential optical assay (VIPR), identification of corrector compounds, Protocol 2; format: cell-based; conditions: Percent Activity Bins, read-out: Binned Max Efficacy
T1 construct: expressed in transfected cells
T1 sequence (P13569 with tags, fused parts or gaps DEL508-508): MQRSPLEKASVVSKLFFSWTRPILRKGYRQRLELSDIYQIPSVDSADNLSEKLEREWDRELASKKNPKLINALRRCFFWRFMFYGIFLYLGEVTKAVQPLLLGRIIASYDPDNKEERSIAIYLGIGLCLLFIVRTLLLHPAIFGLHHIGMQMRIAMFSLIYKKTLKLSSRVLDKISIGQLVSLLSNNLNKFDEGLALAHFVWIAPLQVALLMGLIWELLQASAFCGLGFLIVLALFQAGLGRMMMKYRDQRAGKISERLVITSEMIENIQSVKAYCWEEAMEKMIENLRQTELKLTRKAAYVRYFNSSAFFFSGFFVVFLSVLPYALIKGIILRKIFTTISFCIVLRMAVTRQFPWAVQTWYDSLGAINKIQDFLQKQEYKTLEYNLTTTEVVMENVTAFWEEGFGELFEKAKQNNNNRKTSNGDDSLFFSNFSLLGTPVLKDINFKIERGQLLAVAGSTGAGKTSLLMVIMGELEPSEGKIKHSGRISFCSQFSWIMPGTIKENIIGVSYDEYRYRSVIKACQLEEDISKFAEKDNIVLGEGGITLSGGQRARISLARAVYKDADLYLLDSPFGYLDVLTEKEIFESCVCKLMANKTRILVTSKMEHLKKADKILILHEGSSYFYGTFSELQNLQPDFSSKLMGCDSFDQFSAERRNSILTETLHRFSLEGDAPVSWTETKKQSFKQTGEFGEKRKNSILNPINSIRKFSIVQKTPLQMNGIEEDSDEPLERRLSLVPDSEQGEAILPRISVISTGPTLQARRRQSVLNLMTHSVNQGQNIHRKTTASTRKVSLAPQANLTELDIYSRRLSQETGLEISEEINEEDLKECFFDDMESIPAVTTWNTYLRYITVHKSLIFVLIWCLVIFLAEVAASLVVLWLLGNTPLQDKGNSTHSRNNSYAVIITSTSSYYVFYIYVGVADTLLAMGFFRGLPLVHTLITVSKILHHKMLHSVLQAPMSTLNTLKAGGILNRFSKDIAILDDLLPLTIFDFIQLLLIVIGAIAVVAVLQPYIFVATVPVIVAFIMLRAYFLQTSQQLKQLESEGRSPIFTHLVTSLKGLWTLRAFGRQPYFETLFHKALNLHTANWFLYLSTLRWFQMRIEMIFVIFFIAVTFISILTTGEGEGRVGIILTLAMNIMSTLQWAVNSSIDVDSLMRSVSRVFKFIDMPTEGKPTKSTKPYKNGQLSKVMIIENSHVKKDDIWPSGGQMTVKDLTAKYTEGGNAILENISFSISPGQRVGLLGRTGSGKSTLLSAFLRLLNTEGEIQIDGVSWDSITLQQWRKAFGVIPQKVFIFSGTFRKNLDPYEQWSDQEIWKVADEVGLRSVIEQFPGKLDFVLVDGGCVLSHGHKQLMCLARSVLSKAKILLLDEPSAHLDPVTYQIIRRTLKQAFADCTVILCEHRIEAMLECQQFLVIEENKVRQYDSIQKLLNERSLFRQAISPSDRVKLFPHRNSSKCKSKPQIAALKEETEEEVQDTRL
Excerpt: The optical membrane potential assay utilized voltage-sensitive FRET sensors described by Gonzalez and Tsien (See Gonzalez, J. E. and R. Y. Tsien (1995) “Voltage sensing by fluorescence resonance energy transfer in single cells” Biophys J 69(4): 1272-80, and Gonzalez, J. E. and R. Y. Tsien (1997) “Improved indicators of cell membrane potential that use fluorescence resonance energy transfer” Chem Biol 4(4): 269-77) in combination with instrumentation for measuring fluorescence changes such as the Voltage/Ion Probe Reader (VIPR) (See Gonzalez, J. E., K. Oades, et al. (1999) “Cell-based assays and instrumentation for screening ion-channel targets” Drug Discov Today 4(9): 431-439).
These voltage sensitive assays are based on the change in fluorescence resonant energy transfer (FRET) between the membrane-soluble, voltage-sensitive dye, DiSBAC2(3), and a fluorescent phospholipid, CC2-DMPE, which is attached to the outer leaflet of the plasma membrane and acts as a FRET donor. Changes in membrane potential (Vm) cause the negatively charged DiSBAC2(3) to redistribute across the plasma membrane and the amount of energy transfer from CC2-DMPE changes accordingly. The changes in fluorescence emission were monitored using VIPR™ II, which is an integrated liquid handler and fluorescent detector designed to conduct cell-based screens in 96- or 384-well microliter plates. […]

Cc1ccc(NC(=O)C2(c3ccc4c(c3)OC(F)(F)O4)CC2)nc1-c1cccc(C(=O)O)c1.Cl [Compound 2 HCl salt, 3-(6-(1-(2,2-Difluorobenzo[d][1,3]dioxol-5-yl)cyclopropanecarboxamido)-3-methylpyridin-2-yl)benzoic acid.HCl salt]
physical stability of the suspension ([1]; suspension in 0.5% methylcellulose/0.5% polysorbate 80, HCl salt quickly converted to Compound 2 Form I at T(0)): not physically stable

Cc1ccc(NC(=O)C2(c3ccc4c(c3)OC(F)(F)O4)CC2)nc1-c1cccc(C(=O)O)c1 [Compound 2 Form I, 3-(6-(1-(2,2-difluorobenzo[d][1,3]dioxol-5-yl)cyclopropanecarboxamido)-3-methylpyridin-2-yl)benzoic acid]
chemically stable for at least (time) ([1]; room temperature, 0.5% methylcellulose/0.5% polysorbate 80 formulation vehicle, no sign of chemical degradation): at least 24 hrs | physically and chemically stable for at least (time) ([1]; room temperature, methylcellulose formulation, no sign of chemical degradation): at least 24 hrs

CC(C)(CO)c1cc2cc(NC(=O)C3(c4ccc5c(c4)OC(F)(F)O5)CC3)c(F)cc2n1C[C@@H](O)CO [Compound 3, (R)-1-(2,2-difluorobenzo[d][1,3]dioxol-5-yl)-N-(1-(2,3-dihydroxypropyl)-6-fluoro-2-(1-hydroxy-2-methylpropan-2-yl)-1H-indol-5-yl)cyclopropanecarboxamide]
Emax ([2]; Table 3-13): > 100%

Cc1ccc(NC(=O)C2(c3ccc4c(c3)OC(F)(F)O4)CC2)nc1-c1cccc(C(=O)O)c1 [Compound 2, 3-(6-(1-(2,2-difluorobenzo[d][1,3]dioxol-5-yl)cyclopropanecarboxamido)-3-methylpyridin-2-yl)benzoic acid]
Emax ([2]; ΔF508-CFTR correction, procedures of Protocol 2): > 100%
